How the values were obtained:
[1] = system: L. braziliensis amastigote forms; assay: In vitro activity against intracellular (amastigote) forms in macrophages; format: cell-based, Leishmania braziliensis; details: for Selectivity Index (SI) L. brazilensis Amastigote forms: IC50 of macrophages / IC50 of parasite form; for IC50: Leishmania braziliensis, Macrophage, 72 h
Excerpt: (§1) Methodology: Cultures of three Leishmania species, representative of the species causing each of the clinical forms of the disease, were used for these studies. Specifically, strains MCAN/ES/2001/UCM-1 O of L.infantum, isolated and characterised in Madrid from an infected dog; MHOM/BR/1975/M2904 of L.braziliensis, isolated in Brazil in a human case, and LCR-L 133 LRC of L.donovani. isolated in Jerusalem, Israel from a case of kala-azar […] (WHO Technical Reports Series 949. Geneva: WHO. March. The cultures of parasites come from an own collection which was prepared from a biobank project (Biobank and Characterisation Unit of Strains and Species of Trypanosomatids, Responsible for Human, Animal and Plant Pathologies, Cgl-2008-03687-E/Bos.), and are available on request.
(§2) For the study of the in vitro effect on intracellular forms of Leishmania, the experimental model designed by the group of the present inventors was used [Sánchez-Moreno. M. et al. Med. Chem. 2012, 55, 9900-9913; Sánchez-Moreno. M. et al. J. Antimicrob. Chemother. 2012, 67, 387-397]. The macrophages were detached from the culture flask where they were attached by dry blows. To do this, it was incubated in cold for 5 minutes and after that the flask was hit with the palm of the hand until the cells were detached from the flask. Then, they were passed to a 25 ml capacity steriling conical bottom flask (Deltalab) to centrifuge them at 120 g for 5 minutes, removing the supernatant and were counted in Neubauer’s chamber. Cells were suspended in RPMI medium at a concentration of 1×10^4 cells/well, then cultured in 24-well plates into which a 12 mm round slide had previously been placed into each well. For adherence, the cells were left 24 h at 37° C. in 5% CO2. Subsequently, the cells were infected in vitro by placing Leishmania cells at the rate of 10 parasites/macrophage according to [Sánchez-Moreno. M et al. Med. Chem. 2011, 54, 970-979]. […] The products were allowed to act for 72 hours of incubation.
(§3) After that time, the crystals were removed and fixed with methanol on a slide and allowed to dry, after which DPX microscopy mounting medium (Panreac®) was added to it. Once the preparations had been mounted, they were dyed with Giemsa by diluting Azur-Eosin-Methylene Blue solution according to Giemsa DC (Code 251338) with Sorensen buffer (1:10 dilution). The preparations were covered and allowed to colour for 20 minutes, after which they were washed with distilled water and then allowed to drain and dry vertically. Finally, the amastigote forms were counted with the aim of immersion in a total of 200 cells.

[2] = Potentiometric titrations, protonation constants; format: physicochemical; details: 0.15 M NaCl, 298.1 K
Description: FEM measurements. Potentiometric titrations were conducted at 298.1 ± 0.1 K using 0.15 M NaCl as the support electrolyte. The experimental procedure (burette, potentiometer, cell, stirrer, microcomputer, etc.) has been fully described elsewhere (E. García-Spain, M.-J. Ballester, F. Lloret, J.M. Moratal, J. Faus and A. Bianchi, J. Chem. Soc. Dalton Trans. 1988, 101-104). The FEM data acquisition was performed with the PASAT software (M. Fontanelli and M. Micheloni, Program for the automatic control of the microburette and the acquisition of the electromotor force readings (PASAT). Minutes of the 1st Spanish-Italian Congress of Thermodynamics of Metal Complexes, Peñíscola, Castellón, Spain, 1990). The reference electrode was an Ag/AgCl electrode in saturated KCI solution. The glass electrode was calibrated as a hydrogen ion concentration probe by titration of previously standardised amounts of HCl with CO2 free NaOH solutions and the equivalent point determined by Gran’s method ((a) G. Gran, Analyst 1952, 77, 661 -671; (b) F.J. Rossotti and H. Rossotti, J. Chem. Educ. 1965, 42, 375-378) providing the standard potential, Eº’, and the ionic product of water (pKw = 13.73 (1)).
Hyperquad software was used to calculate protonation and stability constants (P. Gans, A. Sabatini and A. Vacca, Talanta 1996, 43, 1739-1753). The pH range investigated was 2.5-11.0 and the concentration of the ligands varied from 1×10^-3 to 5×10^-3 M. The different titration curves for each system (at least two) were treated as a single set or as separate curves without significant variations in the values of the stability constants. Finally, the data sets were fused and treated simultaneously to give the final protonation constants (Table 1). For compounds 1, 7 and 9, two protonation constants have been detected in the pH range studied with values ranging from 5.51 to 9.68 logarithmic units. For the remaining compounds, three protonation constants have been measured with values ranging from 10.08 to 2.25 logarithmic units. All compounds have charge +1 at the physiological pH value of 7.4.

[3] = system: L. infantum promastigote forms; assay: In vitro activity against extracellular (promastigote) forms; format: cell-based, Leishmania infantum; details: for Selectivity Index (SI) L. infantum Promastigote forms: IC50 of macrophages / IC50 of parasite form; for IC50: Leishmania infantum, 72 h
Excerpt: as §1
(§4) The promastigote forms of the three species studied were cultured in vitro in sterility in single-phase MTL culture medium (Medium Trypanosomes Liquid) made from Hank’s Balanced Salts (Sigma-Aldrich, H6136) enriched with 10% (v/v) of Fetal Bovine Serum (SBF-1) inactivated at 56° C./ 30 minutes. The parasite inoculum to initiate the culture was 5 × 10^4 cells/ml in 5 ml medium in 25 cm^2 Falcon® plastic flasks and kept in an oven at 28° C. The cultures were performed routinely, achieving exponential growth of the flagellates until obtaining the cell mass necessary for the subsequent studies. Both promastigote forms and amastigote forms were used to conduct the assays.
(§5) The promastigote forms of the three Leishmania strains, cultured in the manner described above, were harvested in their exponential growth phase by centrifugation at 400 g for 10 min. The number of parasites was counted in a Neubauer Haemocytometer Counting Chamber and were inoculated in a 24-well plate at a concentration of 5 ×10^4 parasites/well.
(§6) The compounds to be assayed were dissolved in DMSO at a concentration of 0.01% (v/v), concentration at which this solvent is not toxic nor has any effect on the growth of parasites. The compounds were added to the culture medium at final concentrations of 100, 50, 25 and 12.5 µM. […] M. et al. Med. Chem. 2011. 54. 970-979].

[4] = system: L. infantum amastigote forms; assay: In vitro activity against intracellular (amastigote) forms in macrophages; format: cell-based, Leishmania infantum; details: for Selectivity Index (SI) L. infantum Amastigote forms: IC50 of macrophages / IC50 of parasite form; for IC50: Leishmania infantum, Macrophage, 72 h
Excerpt: as §1, §2, §3

[5] = system: L. braziliensis promastigote forms; assay: In vitro activity against extracellular (promastigote) forms; format: cell-based, Leishmania braziliensis; details: for Selectivity Index (SI) L. brazilensis Promastigote forms: IC50 of macrophages / IC50 of parasite form; for IC50: Leishmania braziliensis, 72 h
Excerpt: as §1, §4, §5, §6

[6] = system: L. donovani amastigote forms; assay: In vitro activity against intracellular (amastigote) forms in macrophages; format: cell-based, Leishmania donovani; details: for Selectivity Index (SI) L. donvovani Amastigote forms: IC50 of macrophages / IC50 of parasite form; for IC50: Leishmania donovani, Macrophage, 72 h
Excerpt: as §1, §2, §3

CNCCNCc1ccc2ccccc2n1 [Compound 9, 1-{2-quinolyl)-2,5-diazahexane]
Selectivity Index (SI) L. brazilensis Amastigote forms [1]: 13 | IC50 [1]: 26.5 ± 0.9 µM | Log β [2]: 15.10(3) | Logarithm of the protonation constant H+L ⇌ HL [2]: 9.68(2) | Logarithm of the protonation constant HL+H ⇌ H2L [2]: 5.41(2) | Selectivity Index (SI) L. infantum Promastigote forms [3]: 23 | IC50 [3]: 15.6 ± 0.8 µM | Selectivity Index (SI) L. infantum Amastigote forms [4]: 25 | IC50 [4]: 14.3 ± 0.6 µM | Selectivity Index (SI) L. brazilensis Promastigote forms [5]: 13 | IC50 [5]: 28 ± 0.3 µM | Selectivity Index (SI) L. donvovani Amastigote forms [6]: 11 | IC50 [6]: 31.9 ± 1.1 µM

CNCCNCc1ccncc1 [Compound 3, 1-{4-pyridyl)-2,5-diazahexane]
Selectivity Index (SI) L. brazilensis Amastigote forms [1]: 8 | IC50 [1]: 27.9 ± 1.2 µM | Log β [2]: 18.60(1) | Logarithm of the protonation constant H2L+H ⇌ H3L [2]: 3.390(6) | Logarithm of the protonation constant H+L ⇌ HL [2]: 9.503(5) | Logarithm of the protonation constant HL+H ⇌ H2L [2]: 5.713(5) | Selectivity Index (SI) L. infantum Promastigote forms [3]: 18 | IC50 [3]: 12.6 ± 2.1 µM | Selectivity Index (SI) L. infantum Amastigote forms [4]: 16 | IC50 [4]: 13.9 ± 1 µM | Selectivity Index (SI) L. brazilensis Promastigote forms [5]: 16 | IC50 [5]: 14.3 ± 1 µM | IC50 [6]: 5.1 ± 0.3 µM

CNCCNCc1cccnc1 [Compound 2, 1-{3-pyridyl)-2,5-diazahexane]
Selectivity Index (SI) L. brazilensis Amastigote forms [1]: 20 | IC50 [1]: 15.8 ± 0.5 µM | Log β [2]: 18.29(3) | Logarithm of the protonation constant H2L+H ⇌ H3L [2]: 2.95(2) | Logarithm of the protonation constant H+L ⇌ HL [2]: 9.653(5) | Logarithm of the protonation constant HL+H ⇌ H2L [2]: 5.687(5) | IC50 [3]: 6.4 ± 0.6 µM | IC50 [4]: 8.4 ± 0.5 µM | Selectivity Index (SI) L. brazilensis Promastigote forms [5]: 76 | IC50 [5]: 4.1 ± 0.2 µM | Selectivity Index (SI) L. donvovani Amastigote forms [6]: 21 | IC50 [6]: 14.4 ± 0.1 µM

CN(C)CCNCc1ccnc2ccccc12 [Compound 8, 1-{4-quinolyl)-5-methyl-2,5-diazahexane]
Selectivity Index (SI) L. brazilensis Amastigote forms [1]: 1 | IC50 [1]: 16.8 ± 1.1 µM | Log β [2]: 18.99(2) | Logarithm of the protonation constant H2L+H ⇌ H3L [2]: 3.32(1) | Logarithm of the protonation constant H+L ⇌ HL [2]: 10.08(1) | Logarithm of the protonation constant HL+H ⇌ H2L [2]: 5.59(1) | Selectivity Index (SI) L. infantum Promastigote forms [3]: 2 (2) | IC50 [3]: 14.1 ± 0.6 µM | Selectivity Index (SI) L. infantum Amastigote forms [4]: 2 | IC50 [4]: 11.5 ± 0.8 µM | Selectivity Index (SI) L. brazilensis Promastigote forms [5]: 2 | IC50 [5]: 13.8 ± 0.7 µM | Selectivity Index (SI) L. donvovani Amastigote forms [6]: 2 | IC50 [6]: 10.6 ± 0.6 µM

CN(C)CCNCc1ccncc1 [Compound 6]
Selectivity Index (SI) L. brazilensis Amastigote forms [1]: 17 | IC50 [1]: 29.7 ± 2.5 µM | Log β [2]: 17.22 (1) | Logarithm of the protonation constant H2L+H ⇌ H3L [2]: 2.956(6) | Logarithm of the protonation constant H+L ⇌ HL [2]: 8.865(3) | Logarithm of the protonation constant HL+H ⇌ H2L [2]: 5.407(3) | Selectivity Index (SI) L. infantum Promastigote forms [3]: 8 | IC50 [3]: 63.3 ± 1.5 µM | Selectivity Index (SI) L. infantum Amastigote forms [4]: 21 | IC50 [4]: 23.6 ± 1.7 µM | Selectivity Index (SI) L. brazilensis Promastigote forms [5]: 9 | IC50 [5]: 52.5 ± 5.1 µM | IC50 [6]: 11.5 ± 1.3 µM

CNCCNCc1ccnc2ccccc12 [Compound 10]
Selectivity Index (SI) L. brazilensis Amastigote forms [1]: 8 | IC50 [1]: 21.7 ± 2.3 µM | Log β [2]: 17.99(1) | Logarithm of the protonation constant H2L+H ⇌ H3L [2]: 3.183(8) | Logarithm of the protonation constant H+L ⇌ HL [2]: 9.512(6) | Logarithm of the protonation constant HL+H ⇌ H2L [2]: 5.297(7) | Selectivity Index (SI) L. infantum Promastigote forms [3]: 13 | IC50 [3]: 12.5 ± 1.1 µM | Selectivity Index (SI) L. infantum Amastigote forms [4]: 9 | IC50 [4]: 18.7 ± 1.5 µM | Selectivity Index (SI) L. brazilensis Promastigote forms [5]: 9 | IC50 [5]: 18.4 ± 1.1 µM | Selectivity Index (SI) L. donvovani Amastigote forms [6]: 6 | IC50 [6]: 26.8 ± 2.1 µM

CNCCNCc1ccccn1 [Compound 1, 1-{2-pyridyl}-2,5-diazahexane]
Selectivity Index (SI) L. brazilensis Amastigote forms [1]: 2 | IC50 [1]: 5.7 ± 0.3 µM | Log β [2]: 15.25(1) | Logarithm of the protonation constant H+L ⇌ HL [2]: 9.63(1) ^b | Logarithm of the protonation constant HL+H ⇌ H2L [2]: 5.62(1) | Selectivity Index (SI) L. infantum Promastigote forms [3]: 23 | IC50 [3]: 0.6 ± 0.2 µM | Selectivity Index (SI) L. infantum Amastigote forms [4]: 20 | IC50 [4]: 0.7 ± 0.1 µM | Selectivity Index (SI) L. brazilensis Promastigote forms [5]: 2 | IC50 [5]: 7.4 ± 0.6 µM | Selectivity Index (SI) L. donvovani Amastigote forms [6]: 1 | IC50 [6]: 8.9 ± 0.9 µM

— patent publication US20230346769A1, “USE OF SIMPLE ACYCLIC POLYAMINES FOR THE TREATMENT OF DISEASES CAUSED BY PARASITES OF THE GENUS LEISHMANIA” (Universidad De Granada, priority 2020, published 2023)
